3 compounds from patent US6399782B1, “Benzimidazole inhibitors of fructose 1,6-bisphosphatase” (Metabasis Therapeutics, Inc., priority 1997, dated 2002) can be followed below.

The test system of series [1] is fasted Sprague Dawley rats. Kind of series: Blood glucose lowering in fasted rats. Conditions: 20 mg/kg intraperitoneally, 18 hours fasted Sprague Dawley rats, one hour post injection. The format is in vivo, rat. As for the experimental part:
Sprague Dawley rats (250-300 g) were fasted for 18 hours and then dosed intraperitoneally with 20 mg/kg of compounds 12.53, 12.61, or 12.64. The vehicle used for drug administration was 50 mM sodium bicarbonate. Blood samples were obtained from the tail vein of conscious animals just prior to injection and one hour post injection. Blood glucose was measured using a HemoCue Inc. glucose analyzer according to the instructions of the manufacturer.

A further series relates to rat hepatocytes. The series is described as follows: Inhibition of gluconeogenesis in rat hepatocytes. The class given is cell-based. Conditions: for IC50: Hepatocyte, glucose production from lactate/pyruvate, isolated rat hepatocytes, 1 hour; for inhibition of glucose production in rat hepatocytes (FIG. 4): result in words. The essentials: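 Hepatocytes from overnight-fasted Sprague-Dawley rats (250-300 g), 75 mg wet weight/mL in Krebs-bicarbonate with 10 mM lactate, 1 mM pyruvate, 1 mg/mL BSA and 1–500 μM compound. Supernatant glucose measured by glucose oxidase.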

Series [2] concerns the target T1, Glycogen Phosphorylase (rabbit muscle) (Oryctolagus cuniculus, UniProt P00489).
T1 construct: Enzyme (rabbit muscle) was purchased from Sigma; purchased Sigma; host or cells: rabbit muscle
T1 sequence (P00489 2-843 limits assumed): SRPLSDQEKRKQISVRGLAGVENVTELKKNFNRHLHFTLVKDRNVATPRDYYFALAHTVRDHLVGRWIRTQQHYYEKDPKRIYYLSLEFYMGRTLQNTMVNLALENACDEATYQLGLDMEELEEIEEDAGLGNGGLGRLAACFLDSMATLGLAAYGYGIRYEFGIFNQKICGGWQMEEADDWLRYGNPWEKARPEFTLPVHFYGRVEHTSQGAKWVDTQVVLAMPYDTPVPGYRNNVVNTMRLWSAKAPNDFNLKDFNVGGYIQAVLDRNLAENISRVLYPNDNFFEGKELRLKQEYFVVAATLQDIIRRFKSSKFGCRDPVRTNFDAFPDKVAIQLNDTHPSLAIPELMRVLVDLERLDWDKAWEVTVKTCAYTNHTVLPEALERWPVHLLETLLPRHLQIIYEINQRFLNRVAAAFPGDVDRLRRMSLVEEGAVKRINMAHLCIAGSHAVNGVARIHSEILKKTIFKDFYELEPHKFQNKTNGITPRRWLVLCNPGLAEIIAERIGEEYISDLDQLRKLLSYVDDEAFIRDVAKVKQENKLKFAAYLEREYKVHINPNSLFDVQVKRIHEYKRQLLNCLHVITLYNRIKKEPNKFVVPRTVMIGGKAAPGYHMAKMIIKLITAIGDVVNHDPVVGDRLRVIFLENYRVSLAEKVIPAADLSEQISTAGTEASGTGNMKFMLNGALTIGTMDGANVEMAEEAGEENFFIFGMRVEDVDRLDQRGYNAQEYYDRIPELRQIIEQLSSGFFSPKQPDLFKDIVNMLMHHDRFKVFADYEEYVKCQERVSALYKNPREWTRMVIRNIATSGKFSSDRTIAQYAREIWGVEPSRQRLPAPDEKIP
Kind of series: Glycogen phosphorylase selectivity assay. The class given is biochemical. Conditions: for EC50: Table 3 Selectivity, read-out: Glycogen Phosphorylase (act.); for effect on glycogen phosphorylase: result in words. On the procedure: (§1) To determine the selectivity of compounds towards FBPase, effects of FBPase inhibitors on 5 key AMP binding enzymes were measured using the assays described below:
Glycogen Phosphorylase: Enzyme (rabbit muscle) was purchased from Sigma. Activity was measured at 37° C. in reactions in which the formation of glucose 1-phosphate was coupled to the reduction of NADP via phosphoglucomutase and glucose 6-phosphate dehydrogenase. Assays were performed on 96-well microtitre plates and were read at 340 nm on a Molecular Devices Microplate Reader. Reaction mixtures consisted of 20 mM imidazole, pH 7.4, 20 mM MgCl2, 150 mM potassium acetate, 5 mM potassium phosphate, 1 mM DTT, 1 mg/ml BSA, 0.1 mM NADP, 1 unit/mL phosphoglucomutase, 1 unit/mL glucose 6-phosphate dehydrogenase, 0.5% glycogen. Test compound concentrations ranged from 1 to 500 μM. Reactions were started by the addition of 17 μg enzyme and were monitored for 20 minutes.

In the next series the test system is Porcine heart AMPDA. The series is described as follows: Adenosine monophosphate deaminase selectivity assay. The format is biochemical. The settings on record: AMP deaminase vs hlFBPase. On the procedure:
as §1
Adenosine Monophosphate Deaminase: Porcine heart AMPDA was purified essentially as described by Smiley et al. (Smiley, K. L., Jr, Berry, A. J., and Suelter, C. H. (1967) J. Biol. Chem. 242, 2502-2506) through the phosphocellulose step. Inhibition of AMPDA activity was determined at 37° C. in a 0.1 mL assay mixture containing inhibitor, ˜0.005 U AMPDA, 0.1% bovine serum albumin, 10 mM ATP, 250 mM KCl, and 50 mM MOPS at pH 6.5. The concentration of the substrate AMP was varied from 0.125-10.0 mM. Catalysis was initiated by the addition of enzyme to the otherwise complete reaction mixture, and terminated after 5 minutes by injection into an HPLC system. Activities were determined from the amount of IMP formed during 5 minutes.

Molecules are shown by their SMILES.

`CCc1cc(F)c(N)c2nc(-c3ccc(P(=O)(O)O)o3)n(CC(C)C)c12` [Compound 12.64] registered a blood glucose lowering in series [1] of 64.6±24%. Moreover, the midpoint of inhibition with rat hepatocytes, the IC50, lay at 2.5 µM. Further, the EC50 in series [2] is greater than 500 µM. In series [2] (concentrations of drug ranging from 5 to […]), the “activation of glycogen phosphorylase” value is given as “no activation of the enzyme was observed”.

In the case of `Nc1c(F)ccc2c1nc(-c1ccc(P(=O)(O)O)o1)n2CC1CC1` [Compound 12.61, 4-Amino-5-fluoro-1-cyclopropylmethyl-2-(2-phosphono-5-furanyl)benzimidazole], the melting point lay within 258 to 260 °C. This compound also gave a blood glucose lowering in series [1] of 48±15%. In the series with rat hepatocytes, the midpoint of inhibition, the IC50, lay at 3.3 µM and the “inhibition of glucose production in rat hepatocytes (FIG. 4)” value is recorded as “inhibit glucose production in vitro in rat hepatocytes”. In the series on Porcine heart AMPDA, the “half-maximal inhibition of AMP deaminase relative to IC50 for FBPase” value is given as roughly 600 fold. Besides, in series [2], the EC50 is greater than 100 µM and the “effect on glycogen phosphorylase” value is listed as “essentially without effect”.

For `CCn1c(-c2ccc(P(=O)(O)O)o2)nc2c(N)cccc21` [Compound 12.1, 4-Amino-1-ethyl-2-[2-(5-phosphono)furanyl]benzimidazole], the melting point is greater than 250 °C. Further, in the series with rat hepatocytes, the IC50 was 110 µM and the “inhibition of glucose production in rat hepatocytes (FIG. 4)” value was “inhibit glucose production in vitro in rat hepatocytes”. For the same compound, in the series on Porcine heart AMPDA, the “half-maximal inhibition of AMP deaminase relative to IC50 for FBPase” value turned out to be 42 fold. For the same compound, in series [2], the EC50 was greater than 200 µM and the “effect on glycogen phosphorylase” value was “essentially inactive”.

As usually defined, the IC50 is the concentration at which inhibition is half-maximal. Higher therefore signals weaker potency in that assay. As usually defined, the melting point is the temperature of the solid-liquid transition.
